{
  "source": "paper PMC7864197",
  "about": "“High-Content Analysis-Based Sensitivity Prediction and Novel Therapeutics Screening for c-Met-Addicted Glioblastoma” (Cancers, 2021)",
  "target": "c-Met (MET kinase) (Homo sapiens, UniProt P08581)",
  "sequence (P08581 25-307)": "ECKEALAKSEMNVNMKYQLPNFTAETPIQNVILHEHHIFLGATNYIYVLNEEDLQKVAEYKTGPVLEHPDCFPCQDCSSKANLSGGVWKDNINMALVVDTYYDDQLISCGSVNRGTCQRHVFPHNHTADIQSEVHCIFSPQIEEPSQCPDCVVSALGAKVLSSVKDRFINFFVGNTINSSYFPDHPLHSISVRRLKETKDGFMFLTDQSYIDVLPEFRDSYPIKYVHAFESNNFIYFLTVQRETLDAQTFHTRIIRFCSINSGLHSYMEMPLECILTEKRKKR",
  "sequence (P08581 308-1390)": "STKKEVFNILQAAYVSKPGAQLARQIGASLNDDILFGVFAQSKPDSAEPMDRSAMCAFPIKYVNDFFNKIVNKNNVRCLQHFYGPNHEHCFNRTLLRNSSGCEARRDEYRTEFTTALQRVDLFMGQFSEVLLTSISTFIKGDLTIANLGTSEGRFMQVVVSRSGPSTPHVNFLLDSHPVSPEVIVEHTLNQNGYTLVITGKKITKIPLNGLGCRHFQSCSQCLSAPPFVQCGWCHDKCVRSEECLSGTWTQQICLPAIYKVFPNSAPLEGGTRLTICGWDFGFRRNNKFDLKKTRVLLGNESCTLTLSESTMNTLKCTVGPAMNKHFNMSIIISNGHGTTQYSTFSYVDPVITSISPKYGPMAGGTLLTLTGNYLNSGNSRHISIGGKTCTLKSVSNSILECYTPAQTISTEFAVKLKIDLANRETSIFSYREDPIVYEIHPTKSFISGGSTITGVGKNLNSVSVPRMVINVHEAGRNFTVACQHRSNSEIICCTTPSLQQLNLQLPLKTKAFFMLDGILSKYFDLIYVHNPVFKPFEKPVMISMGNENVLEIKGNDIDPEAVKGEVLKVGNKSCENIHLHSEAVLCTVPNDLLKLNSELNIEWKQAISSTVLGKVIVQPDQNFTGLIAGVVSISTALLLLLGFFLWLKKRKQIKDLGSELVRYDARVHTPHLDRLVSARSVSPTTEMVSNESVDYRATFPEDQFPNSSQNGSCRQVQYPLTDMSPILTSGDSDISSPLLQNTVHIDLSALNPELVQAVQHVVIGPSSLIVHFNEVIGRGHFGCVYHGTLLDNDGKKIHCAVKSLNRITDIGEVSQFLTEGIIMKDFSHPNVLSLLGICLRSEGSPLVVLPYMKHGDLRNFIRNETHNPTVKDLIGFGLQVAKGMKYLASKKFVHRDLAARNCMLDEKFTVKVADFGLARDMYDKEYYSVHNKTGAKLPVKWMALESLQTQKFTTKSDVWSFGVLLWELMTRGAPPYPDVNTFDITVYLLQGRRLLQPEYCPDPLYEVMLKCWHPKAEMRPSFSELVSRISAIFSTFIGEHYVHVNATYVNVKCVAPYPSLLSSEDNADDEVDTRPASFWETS",
  "experiment": "ADP-Glo MET kinase enzyme system (in vitro kinase assay)",
  "assay_type": "biochemical",
  "data": [
    {"compound": "CCN1CCN(Cc2ccc(Nc3ncc(F)c(-c4cc(F)c5nc(C)n(C(C)C)c5c4)n3)nc2)CC1", "note": "[Abemaciclib]", "values": [
      {"measurement": "ADP-Glo MET kinase enzyme system (in vitro kinase assay)", "value": "abemaciclib was shown to inhibit kinase activity of c-Met at high concentrations"}
    ]}
  ]
}
